Measured values: patent US7691848B2, “Pyrrolobenzodiazepine arylcarboxamides and derivatives thereof as follicle-stimulating hormone receptor antagonists” (Wyeth, priority 2005, dated 2010)

Tests used:
[1] = biological target: T1, human FSH receptor (Homo sapiens, UniProt P23945); test: Follicle-Stimulating Hormone Receptor-Dependent Cre-Luciferase Reporter Gene Assay (CHO FSH-R 6CRE-Luc cells); assay type: cell-based; conditions: for IC50: dose-response format, in presence of EC50 of purified human FSH
T1 construct: host or cells: CHO-K1 (CHO FSH-R 6CRE-Luc, 1D7 cells)
T1 sequence (P23945 18-695): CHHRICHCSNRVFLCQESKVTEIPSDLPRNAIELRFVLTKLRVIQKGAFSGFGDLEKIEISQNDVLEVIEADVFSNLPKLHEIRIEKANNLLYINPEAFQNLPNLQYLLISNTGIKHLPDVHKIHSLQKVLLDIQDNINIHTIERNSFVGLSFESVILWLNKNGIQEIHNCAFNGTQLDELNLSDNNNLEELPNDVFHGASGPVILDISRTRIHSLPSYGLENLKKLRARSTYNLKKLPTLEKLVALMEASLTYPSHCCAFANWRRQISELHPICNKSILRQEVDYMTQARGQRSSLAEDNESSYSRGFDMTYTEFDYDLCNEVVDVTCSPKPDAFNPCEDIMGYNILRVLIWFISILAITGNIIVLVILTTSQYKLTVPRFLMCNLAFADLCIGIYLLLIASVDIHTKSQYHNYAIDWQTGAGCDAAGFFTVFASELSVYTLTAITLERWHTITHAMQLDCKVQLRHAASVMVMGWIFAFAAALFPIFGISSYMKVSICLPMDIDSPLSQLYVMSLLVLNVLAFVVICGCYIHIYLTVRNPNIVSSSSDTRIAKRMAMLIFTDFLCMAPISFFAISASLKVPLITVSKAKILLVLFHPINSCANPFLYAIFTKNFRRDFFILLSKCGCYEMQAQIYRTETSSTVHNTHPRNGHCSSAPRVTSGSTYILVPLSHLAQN
Outline: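 CHO-K1 cells stably expressing human FSH receptor and a 6×CRE-driven luciferase reporter; compounds in growth medium with 0.2% DMSO, incubated 4 h at 37 °C. Luciferase measured by chemiluminescence (RLU/sec/well); 2-dose results given as percent inhibition of the response to an EC50 concentration of FSH.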

[2] = biological target: T2, hFSH-R (Homo sapiens, UniProt P23945); test: cAMP accumulation (RIA) in CHO-3D2 cells (hFSH-R), hFSH-induced; assay type: cell-based; conditions: for Emax: read-out: cAMP % efficacy
T2 construct: expressed in transfected cells; host or cells: CHO-3D2 cells (CHO-K1 parental line)
T2 sequence (P23945 18-695): T1 sequence (P23945 18-695)
Protocol: In Vitro Bio-Assay, Selectivity and Dependency of Agonists and Antagonists to the FSH Receptor
Compound Vehicle: Stock compounds were solubilized in 100% DMSO (Sigma-Aldrich Chemical Co., St. Louis, Mo.) at a concentration of 30 mM. The compounds subsequently were diluted in sterile assay medium consisting of Opti-MEM® I (Invitrogen/Life Technologies, Carlsbad, Calif.) with 0.1% (w/v) BSA (Sigma-Aldrich) prior to use in the bio-assay. The final concentration of DMSO in the assay was 0.1%.
Plated cells are then incubated at 37° C. in a humidified 5% CO2/95% air atmosphere.
Assay: On the day of the assay, cells were washed three times with 100 μl/well of assay medium consisting of Opti-MEM® I (Invitrogen/Life Technologies) with 0.1% (w/v) BSA (Sigma-Aldrich). Medium was removed and 100 μl of assay medium was added to each well. Plates were incubated for an additional 30 minutes at 37° C. […] Reactions were terminated by the addition of 50 μl of 0.2N hydrochloric acid to each well and cAMP-accumulation was measured by radioimmunoassay (RIA) using a commercially available kit (Amersham Biosciences, Piscataway, N.J.).
All test compounds were evaluated in a dose-response paradigm ranging from 0.01 to 30 μM. Controls and test compounds were evaluated in quadruplicate in a 96-well format.
Along with the test compounds, FSH also was run as a positive control in the agonist mode using concentrations ranging from 0.1-1000 ng/ml.
Data were analyzed by one-way analysis of variance and significant differences between treatments and control determined by Least Significant Difference test.
Test compounds were compared to the effect of purified human FSH.

## COc1cc(C(=O)N2Cc3ccc(C(=O)NCc4ccc(C)cc4)n3Cc3ccccc32)ccc1-c1ccccc1C [Example 38, 10-[(2-METHOXY-2′-METHYL-1,1′-BIPHENYL-4-YL)CARBONYL]-N-(4-METHYLBENZYL)-10,11-DIHYDRO-5H-PYRROLO[2,1-C][1,4]BENZODIAZEPINE-3-CARBOXAMIDE]
[1]
  IC50: 1690 nM
[2]
  IC50: 500 nM
  Emax: 83%
other
  melting point: 179 to 180 °C

## COc1cc(C(=O)N2Cc3ccc(C(=O)NCc4ccc(F)cc4)n3Cc3ccccc32)ccc1-c1ccccc1C [Example 60, N-(4-FLUOROBENZYL)-10-[(2-METHOXY-2′-METHYL-1,1′-BIPHENYL-4-YL)CARBONYL]-10,11-DIHYDRO-5H-PYRROLO[2,1-C][1,4]BENZODIAZEPINE-3-CARBOXAMIDE]
[1]
  IC50: 1130 nM
[2]
  IC50: 400 nM
  Emax: 95%
other
  melting point: 214 to 215 °C

## Cc1ccccc1-c1ccc(C(=O)N2Cc3ccc(C(=O)NCc4ccc(Cl)cc4)n3Cc3ccccc32)cc1C [Example 18]
[1]; 2-dose format, concentration in parentheses 30 μM, inhibition of the response to EC50 of FSH
  inhibition at 30 µM: 58%
[2]
  IC50: > 30000 nM
other
  melting point: 196 to 197 °C

## COc1cc(C(=O)N2Cc3ccc(C(=O)NCc4ccc5c(c4)OCO5)n3Cc3ccccc32)ccc1-c1ccccc1C [Example 40]
[1]
  IC50: 1050 nM
[2]
  IC50: 400 nM
  Emax: 90%
other
  melting point: 167 to 168 °C

## Cc1ccccc1-c1ccc(C(=O)N2Cc3ccc(C(=O)NCc4ccccc4)n3Cc3ccccc32)cc1C [Example 15]
[1]
  IC50: 2600 nM
[2]
  IC50: 400 nM
  Emax: 90%
other
  melting point: 138 to 141 °C

## COc1ccc(CNC(=O)c2ccc3n2Cc2ccccc2N(C(=O)c2ccc(-c4ccccc4C)c(C)c2)C3)cc1 [Example 8]
[1]
  IC50: 2390 nM
[2]
  IC50: 3600 nM
  Emax: 63%
other
  melting point: 127 to 128 °C
